Source: ChEMBL document CHEMBL1667783 (Bioorg Med Chem Lett, 2011)

Experiments:
Type in all cases: functional, cell-based
SK-OV-3 = test: Cytotoxicity against human SKOV3 cells after 48 hrs by MTT assay; conditions: SK-OV-3, 48 h
HeLa = test: Cytotoxicity against human HeLa cells after 48 hrs by MTT assay
HepG2 = test: Cytotoxicity against human HepG2 cells after 48 hrs by MTT assay; conditions: HepG2, 48 h
A549 = test: Cytotoxicity against human A549 cells after 48 hrs by MTT assay; conditions: A549, 48 h
HEp-2 = test: Cytotoxicity against human Hep2 cells after 48 hrs by MTT assay; conditions: HEp-2, 48 h
MCF7 = test: Cytotoxicity against human MCF7 cells after 48 hrs by MTT assay; conditions: MCF7, 48 h
A-431 = test: Cytotoxicity against human A431 cells after 48 hrs by MTT assay; conditions: A-431, 48 h
U-251 = test: Cytotoxicity against human U251 cells after 48 hrs by MTT assay; conditions: U-251, 48 h

Row | Compound | IC50 (SK-OV-3) [µM] | IC50 (HeLa) [µM] | IC50 (HepG2) [µM] | IC50 (A549) [µM] | IC50 (HEp-2) [µM] | IC50 (MCF7) [µM] | IC50 (A-431) [µM] | IC50 (U-251) [µM]
1 | COc1cc(/C=C/C(=O)/C=C(O)/C=C/c2ccc(-n3ccc4ccccc43)c(OC)c2)ccc1-n1ccc2ccccc21 | > 100 | > 100 | > 100 | > 100 | > 100 | > 100 | > 100 | –
2 | COc1cc(/C=C/C(=O)/C=C(O)/C=C/c2ccc(Br)c(OC)c2)ccc1Br | > 100 | > 100 | > 100 | > 100 | > 100 | > 100 | 55.9 | 84.8
3 | COc1cc(/C=C/C(=O)/C=C(O)/C=C/c2ccc(I)c(OC)c2)ccc1I | > 100 | > 100 | > 100 | > 100 | > 100 | > 100 | > 100 | > 100
4 | COc1cc(/C=C/C(=O)/C=C(O)/C=C/c2ccc(-n3cccn3)c(OC)c2)ccc1-n1cccn1 | > 100 | > 100 | > 100 | > 100 | > 100 | > 100 | > 100 | –
5 | COc1cc(/C=C/C(=O)/C=C(O)/C=C/c2ccc(C(N)=O)c(OC)c2)ccc1C(N)=O | 38.3 | 23.8 | 43.6 | > 100 | > 100 | 49.2 | 9.4 | 7.7
6 | COc1cc(/C=C/C(=O)/C=C(O)/C=C/c2ccc(-n3ccnc3)c(OC)c2)ccc1-n1ccnc1 | 66.9 | 45.4 | 82.5 | > 100 | > 100 | > 100 | 16.8 | 22
7 | COc1cc(/C=C/C(=O)CC(=O)/C=C/c2ccc(O)c(OC)c2)ccc1O [CURCUMIN] | 37.7 | 27.4 | 31.6 | 42.6 | 56.9 | – | 13.8 | 13.8
8 | COc1cc(/C=C/C(=O)/C=C(O)/C=C/c2ccc(N)c(OC)c2)ccc1N | > 100 | > 100 | > 100 | > 100 | > 100 | > 100 | 15.8 | 24.5
9 | COc1cc(/C=C/C(=O)/C=C(O)/C=C/c2ccc(-n3cnc4ccccc43)c(OC)c2)ccc1-n1cnc2ccccc21 | > 100 | > 100 | > 100 | > 100 | > 100 | > 100 | > 100 | –
10 | COc1cc(/C=C/C(=O)/C=C(O)/C=C/c2ccc(NC(C)=O)c(OC)c2)ccc1NC(C)=O | 55.5 | 37.1 | 71.6 | > 100 | > 100 | > 100 | 7.2 | 7.1
11 | CNc1ccc(/C=C/C(=O)/C=C(O)/C=C/c2ccc(NC)c(OC)c2)cc1OC | > 100 | > 100 | > 100 | > 100 | > 100 | > 100 | > 100 | > 100
